Values quoted from earlier work as cited in patent US20140234410A1, “COMBINATION PRODUCTS” (SIGMOID PHARMA LTD., priority 2004, published 2014).

Columns and labels:
[1] = in vivo
thrombocythemia = settings: co-administrated with a small dose of aspirin; people with thrombocythemia
[2] = adults
[3] = in vivo; remark: listed apart in the source
tumour growth = settings: simultaneous administration with R-verapamil

Compound: COc1ccc2c(c1)[C@]13CCCC[C@@H]1[C@H](C2)N(C)CC3 [Dextromethorphan]
- adverse effects, share of people [1]: less than 1%

Compound: NC(=O)NO [Hydroxyurea]
- preventing serious bleeding and other complications versus anagrelide hydrochloride (thrombocythemia): more effective
- solubility in water: freely soluble

Compound: COCCOC(=O)C1=C(C)NC(C)=C(C(=O)OC(C)C)C1c1cccc([N+](=O)[O-])c1 (stereo not shown) [Nimodipine]
- solubility in water: practically insoluble

Compound: Cn1c(=O)c2[nH]cnc2n(C)c1=O [Theophylline]
- biological half life [2]: < 6 hours
- concentrations with anti-inflammatory and immunostimulatory effect [3]: 5 to 10 mg/L

Compound: CN/C(=N/CCSCc1nc[nH]c1C)NC#N [cimetidine]
- bioavailability of nimodipine (cytochrome P450; effect of the co-administered drug): approximate doubling

Compound: CN(CCOc1ccc(CC2SC(=O)NC2=O)cc1)c1ccccn1 (stereo not shown) [rosiglitazone, Rosiglitazone]
- solubility as a function of pH (physiological range): decreases with increasing pH

Compound: CC/C(=C(\c1ccccc1)c1ccc(OCCN(C)C)cc1)c1ccccc1 [tamoxifen, Tamoxifen]
- tumour growth (tumour growth): significantly decreases

Compound: CCCC(CCC)C(=O)O [valproic acid]
- plasma concentrations of nimodipine (cytochrome P450; two drugs administered in combination): increased
